From patent US20120294859A1, “CANCER STEM CELL MARKERS AND USES THEREOF” (GLYCOTOPE GMBH, priority 2010, published 2012)

How the values were obtained:
[1] = tested on: MDA435 breast adenocarcinoma cells; assay: Flow cytometry of CD44/CD176 expression after 4-OHT treatment; assay type: cell-based, human; conditions: for change in percentage of CD44^+/CD176^+ cells after treatment: MDA435, 24 h, 20 nM
Experimental: (§1) Cell suspensions of cell lines were prepared at 1×10^6 cells/100 μl. Cells were washed twice with PBS containing 2% BSA and incubated with primary antibodies at appropriate dilutions at 4° C. for 20 min, followed by anti-IgG-Cy3 (γ chain-specific) and anti-IgM-FITC (μ chain-specific) at appropriate concentrations at 4° C. for 20 min. Flow cytometry was performed with a FACScan (BD Biosciences, Franklin Lakes, N.J., USA). Collected data from 10,000 cells and WinMDI software were used in the analysis of FCS […]. For 4-hydroxytamoxifen treatment, MDA231, MDA435 and MCF-7 breast adenocarcinoma cell lines were exposed to 4-OHT (#H6278, Sigma) at a final concentration of 20 nM for 24 h. Then flow cytometry analysis was performed as described above.

[2] = tested on: MCF-7 breast adenocarcinoma cells; assay: as above; assay type: cell-based, human
Experimental: as §1

[3] = tested on: MDA231 breast adenocarcinoma cells; assay: as above; assay type: cell-based, human
Experimental: as §1

[4] = tested on: MDA-MB-435 breast adenocarcinoma cells; assay: Flow cytometry of CD44/CD173/CD174 expression after 4-OHT treatment; assay type: cell-based; conditions: MDA-MB-435, 20 nM for 24 h, P>0.05
Experimental: (§2) Cell suspensions from established cell lines were prepared at a density of 1×10^6 cells/100 μl. They were washed twice with phosphate buffered saline (PBS) containing 2% BSA and incubated with primary antibodies at 4° for 20 min, followed by anti IgG-Cy3 (γ chain-specific) and anti IgM-FITC (μ chain-specific) in appropriate concentrations at 4° for 20 min. Flow cytometry was performed on a FACScan (BD Biosciences, Franklin Lakes, N.J., USA). Collected data from 10,000 cells and WinMDI software were used for the analysis of FACS […]. For 4-hydroxytamoxifen treatment, MDA-MB-231, MDA-MB-435 and MCF-7 breast adenocarcinoma cell lines were exposed to 4-OHT (#H6278, Sigma) at a final concentration of 20 nM for 24 h. Then flow cytometry analysis was performed as described above.

[5] = tested on: MCF-7 breast adenocarcinoma cells; assay: as above; assay type: cell-based; conditions: MCF-7, 20 nM for 24 h, P>0.05
Experimental: as §2

[6] = tested on: MDA-MB-231 breast adenocarcinoma cells; assay: as above; assay type: cell-based; conditions: MDA231, 20 nM for 24 h, P<0.05
Experimental: as §2

[7] = MDA435, 4-OHT 20 nM for 24 h, percent of the positive cells
[8] = MCF-7, 4-OHT 20 nM for 24 h, percent of the positive cells
[9] = MDA231, 4-OHT 20 nM for 24 h, percent of the positive cells

## CC/C(=C(\c1ccc(O)cc1)c1ccc(OCCN(C)C)cc1)c1ccccc1 [4-OHT, 4-hydroxytamoxifen]
[1]; [7]
  CD44^+/C176^+ cells: ~12%
  CD44^+/CD176^− cells: ~50%
  CD44^−/CD176^+ cells: ~7%
  CD44^−/CD176^− cells: ~31%
[1]
  change in percentage of CD44^+/CD176^+ cells after treatment: increased
[1]; listed as tamoxifen
  change in percentage of CD44^+/CD176^+ cells after treatment: enhanced
[2]; [8]
  CD44^+/C176^+ cells: ~8%
  CD44^+/CD176^− cells: ~20%
  CD44^−/CD176^+ cells: ~8%
  CD44^−/CD176^− cells: >60%
[2]; MCF-7, 24 h, 20 nM
  change in number of CD44^+/CD176^+ co-expressing cells after treatment: no significantly increased number
[3]; [9]
  CD44^+/C176^+ cells: ~2%
  CD44^+/CD176^− cells: ~1%
  CD44^−/CD176^+ cells: ~13%
  CD44^−/CD176^− cells: >60%
[3]; MDA231, 24 h, 20 nM
  change in number of CD44^+/CD176^+ co-expressing cells after treatment: no significantly increased number
[4]
  change in percentage of CD44^+CD173^+ cells after treatment: not
  change in percentage of CD44^+CD174^+ cells after treatment: not
[5]
  change in percentage of CD44^+CD173^+ cells after treatment: not
  change in percentage of CD44^+CD174^+ cells after treatment: not
[6]
  change in percentage of CD44^+CD173^+ cells after treatment: increased
  change in percentage of CD44^+CD174^+ cells after treatment: increased
